Experimental data taken from patent US12115178B2, “Acylated active agents and methods of their use for the treatment of autoimmune disorders” (Flagship Pioneering Innovations V, Inc., priority 2018, dated 2024).

Legend:
Type in all cases: in vitro ADME
[1] = Assay 2. Stability in Simulated Intestinal Fluid (SIF); settings: SIF pH 6.7 with pancreatin, 1 μM, 37° C.
Procedure: Assay 2. Stability of acylated active agents in Simulated Intestinal Fluid (SIF). This assay was used to assess the stability of an acylated active agent in a small intestine. Phosphate buffer was prepared by dissolving 0.42 g of sodium hydroxide pellets and 3.95 g of monobasic sodium phosphate monohydrate and 6.19 g of sodium chloride in ultrapure water (MilliQ®, Millipore Sigma, Darmstadt, Germany). The pH was adjusted to 6.7 using aq. HCl and aq. NaOH, as necessary, and the solution was diluted with ultrapure water to produce 1 L of the pH 6.7 buffer. 112 mg FaSSIF powder (Biorelevant™, London, UK) was dissolved in 50 mL of the pH 6.7 buffer. 2 to 3 mL of the resulting solution were then added to 500 mg pancreatin (Millipore Sigma, Darmstadt, Germany). The resulting mixture was agitated by finger tapping the vessel containing the mixture until milky suspension formed. At this time, the remainder of the 50 mL FaSSiF/pH 6.7 buffer solution was added. The resulting suspension was flipped upside down 10 times to produce SIF, which was used fresh. Test compounds were dissolved in DMSO stock to 1 mM. An aliquot of the DMSO stock solution was removed and diluted in the SIF media in 15 mL falcon tubes to produce a mixture with a tested compound concentration of 1 μM. A 1 mL aliquot was immediately removed and diluted once with 1 volume of acetonitrile for T0 timepoint. The mixture was sealed and agitated at 37° C. in an incubator. Aliquots (1 mL) were removed at regular intervals and immediately quenched by the addition of 1 volume of acetonitrile. The resulting samples were analyzed by LC/MS to determine degradation rates.

[2] = Assay 3. In vitro Colonic Material Stability Assay
Procedure: Assay 3. In vitro Colonic Material Stability Assay. This assay was used to assess the stability of an acylated active agent in a large intestine. All experiments were performed in an anaerobic chamber containing 90% nitrogen, 5% hydrogen and 5% carbon dioxide. Colonic material was resuspended as a slurry (15% w/v final concentration) in pre-reduced, anaerobically sterilized dilution blanks (Anaerobe Systems AS-908). The colonic material was then inoculated into 96 well plates containing YCFAC media (Anaerobe Systems AS-680) or other suitable media (6.7 μL slurry into 1 mL total media). Compounds or groups of compounds were added to each individual well to reach a final analyte concentration of 1 or 10 μM, and the material was mixed by pipetting. Sample was removed after set timepoints (0, 120, 240, 480, 1440, 2880 minutes after initiation of the assay), quenched with acetonitrile containing internal standard, and analyzed by LC/MS.

[3] = Assay 1. Stability in Simulated Gastric Fluid (SGF); settings: SGF pH 1.6 with pepsin, 1 μM, 37° C.
Procedure: Assay 1. Stability of acylated active agents in Simulated Gastric Fluid (SGF). This assay was used to assess the stability of an acylated active agent in a stomach.
Medium was prepared by dissolving 2 g of sodium chloride in 0.6 L in ultrapure water (MilliQ®, Millipore Sigma, Darmstadt, Germany). The pH was adjusted to 1.6 with 1N hydrochloric acid, and the volume was then adjusted to 1 L with purified water.
60 mg FaSSIF powder (Biorelevant™, London, UK) were dissolved in 500 mL buffer (above). Pepsin was added (0.1 mg/mL) (Millipore Sigma, Darmstadt, Germany), and the solution was stirred. The resulting SGF media were used fresh for each experiment.
Test compounds were dissolved in DMSO stock to 1 mM. An aliquot of the DMSO stock solution was removed and diluted in the SGF Media in 15 mL falcon tubes to generate a total compound concentration of 1 μM. A 1 mL aliquot was immediately removed and diluted once with 1 volume of acetonitrile for T0 timepoint. The mixture was sealed and mixed at 37° C. in an incubator. Aliquots (1 mL) were removed at regular intervals and immediately quenched by the addition of 1 volume of acetonitrile. The resulting samples were analyzed by LC/MS to determine degradation rates in SGF.

[4] = colonic material slurry, anaerobic, 1 or 10 μM

Row | SMILES | Assay 2 (SIF) (% @ Remaining 4 hours) [1] | Assay 3 (% Remaining at 24 h) [2, 4] | further results
1 | CCCC(=O)O[C@H]1[C@H](OC(=O)CCC)[C@H](Oc2ccccc2C(=O)O)O[C@@H](C)[C@H]1OC(=O)CCC [Compound 23, 2-(((2S,3S,4R,5R,6S)-3,4,5-tris(butyryloxy)-6-methyltetrahydro-2H-pyran-2-yl)oxy)benzoic acid] | B (25-75% of the tested compound remaining) | C (>75% of the tested compound remaining) | 
2 | CC(=O)O[C@@H]1[C@H](OC(C)=O)C=C(C(=O)O)C[C@H]1OC(C)=O [Compound 215, (3R,4S,5R)-3,4,5-triacetoxycyclohex-1-ene-1-carboxylic acid] |  | B (25-75% of the tested compound remaining) | 
3 | C[C@@H]1OC(OC(=O)CCc2c[nH]c3ccccc23)[C@H](OC(=O)CCc2c[nH]c3ccccc23)[C@H](OC(=O)CCc2c[nH]c3ccccc23)[C@H]1OC(=O)CCc1c[nH]c2ccccc12 (stereo partly drawn) [Compound 147, (3R,4R,5S,6S)-3,4,5-tris({[3-(1H-indol-3-yl)propanoyl]oxy})-6-methyloxan-2-yl 3-(1H-indol-3-yl)propanoate] |  | A (<25% of the tested compound remaining) | 
4 | CCCC(=O)O[C@@H]1[C@@H](OC(=O)CCC)[C@H](OC)OC[C@H]1OC(=O)CCC [Compound 88, (2R,3R,4S,5R)-4,5-bis(butanoyloxy)-2-methoxyoxan-3-yl butanoate] | A (<25% of the tested compound remaining) | A (<25% of the tested compound remaining) | 
5 | CCCC(=O)Oc1cc(OC(=O)CCC)c2c(c1)O[C@H](c1cc(OC(=O)CCC)c(OC(=O)CCC)c(OC(=O)CCC)c1)[C@H](OC(=O)c1cc(OC(=O)CCC)c(OC(=O)CCC)c(OC(=O)CCC)c1)C2 [Compound 198, [(2R,3R)-5,7-di(butanoyloxy)-2-[3,4,5-tri(butanoyloxy)phenyl]chroman-3-yl] 3,4,5-tri(butanoyloxy)benzoate] |  |  | Assay 3 (% Remaining at 24 h) ([2]; Run 1, colonic material): C (>75% of the tested compound remaining); Assay 3 (% Remaining at 24 h) ([2]; Run 2, colonic material): C (>75% of the tested compound remaining); Assay 3 (% Remaining at 24 h) ([2]; Run 3, colonic material): B (25-75% of the tested compound remaining)
6 | C[C@@H]1O[C@@H](OC(=O)CCc2c[nH]c3ccccc23)[C@@H](OC(=O)CCc2c[nH]c3ccccc23)[C@H](OC(=O)CCc2c[nH]c3ccccc23)[C@@H]1OC(=O)CCc1c[nH]c2ccccc12 [Compound 64, (2S,3S,4R,5R,6S)-3,4,5-tris({[3-(1H-indol-3-yl)propanoyl]oxy})-6-methyloxan-2-yl 3-(1H-indol-3-yl)propanoate] | A (<25% of the tested compound remaining) | A (<25% of the tested compound remaining) | 
7 | CCCC(=O)O[C@H]1[C@H](OC(=O)CCC)COC(O)[C@@H]1OC(=O)CCC (stereo partly drawn) [Compound 158, (3R,4S,5R)-4,5-bis(butanoyloxy)-2-hydroxyoxan-3-yl butanoate] | A (<25% of the tested compound remaining) | A (<25% of the tested compound remaining) | 
8 | CCCC(=O)Oc1ccc2c(c1)oc(=O)c1cc(OC(=O)CCC)c(OC(=O)CCC)cc12 [Compound 210, 8,9-bis(butanoyloxy)-6-oxo-6H-benzo[c]chromen-3-yl butanoate] |  | A (<25% of the tested compound remaining) | 
9 | CCC(=O)O[C@@H]1[C@H](OC(=O)CC)C=C(C(=O)O)C[C@H]1OC(=O)CC [Compound 217, (3R,4S,5R)-3,4,5-tris(propanoyloxy)cyclohex-1-ene-1-carboxylic acid] |  | B (25-75% of the tested compound remaining) | 
10 | [2H]C([2H])([2H])C([2H])([2H])CC(=O)O[C@@H]1[C@@H](OC(=O)CC([2H])([2H])C([2H])([2H])[2H])[C@H](Oc2ccc(N)cc2C(=O)O)OC[C@H]1O [Compound 192, 5-amino-2-{[(2S,3R,4S,5R)-3,4-bis[(3,3,4,4,4-^2H5)butanoyloxy]-5-hydroxyoxan-2-yl]oxy}benzoic acid] |  | B (25-75% of the tested compound remaining) | 
11 | CC(=O)Oc1cc(OC(C)=O)c2c(c1)O[C@H](c1cc(OC(C)=O)c(OC(C)=O)c(OC(C)=O)c1)[C@H](OC(=O)c1cc(OC(C)=O)c(OC(C)=O)c(OC(C)=O)c1)C2 [Compound 197, [(2R,3R)-5,7-diacetoxy-2-(3,4,5-triacetoxyphenyl)chroman-3-yl] 3,4,5-triacetoxybenzoate] |  | A (<25% of the tested compound remaining) | 
12 | [2H]C([2H])([2H])C([2H])([2H])CC(=O)O[C@@H]1[C@@H](OC(=O)CC([2H])([2H])C([2H])([2H])[2H])[C@H](Oc2ccc(N)cc2C(=O)O)OC[C@H]1OC(=O)CC([2H])([2H])C([2H])([2H])[2H] [Compound 189, 5-amino-2-{[(2S,3R,4S,5R)-3,4,5-tris[(3,3,4,4,4-^2H5)butanoyloxy]oxan-2-yl]oxy}benzoic acid] |  | B (25-75% of the tested compound remaining) | 
13 | CCCC(=O)O[C@@H]1[C@H](OC(=O)CCC)[C@H](C)OC(O)[C@H]1OC(=O)CCC (stereo partly drawn) [Compound 136, (3S,4R,5R,6S)-4,5-bis(butanoyloxy)-2-hydroxy-6-methyloxan-3-yl butanoate] | A (<25% of the tested compound remaining) |  | Assay 1 (SGF) (% Remaining @ 1 hour) [3]: C (>75% of the tested compound remaining)
14 | O=C(CCc1c[nH]c2ccccc12)Oc1cc(C(=O)O)cc(OC(=O)CCc2c[nH]c3ccccc23)c1OC(=O)CCc1c[nH]c2ccccc12 [Compound 202, 3,4,5-tris({[3-(1H-indol-3-yl)propanoyl]oxy})benzoic acid] | C (>75% of the tested compound remaining) |  | Assay 1 (SGF) (% Remaining @ 1 hour) [3]: A (<25% of the tested compound remaining)
15 | CCC(=O)OC[C@H]1OC(O)[C@H](OC(=O)CC)[C@@H](OC(=O)CC)[C@@H]1OC(=O)CC (stereo partly drawn) [Compound 110, [(2R,3R,4S,5R)-6-hydroxy-3,4,5-tris(propanoyloxy)oxan-2-yl]methyl propanoate] | A (<25% of the tested compound remaining) |  | Assay 1 (SGF) (% Remaining @ 1 hour) [3]: C (>75% of the tested compound remaining)
16 | O=C(CCc1c[nH]c2ccccc12)O[C@@H]1[C@H](OC(=O)CCc2c[nH]c3ccccc23)C=C(C(=O)O)C[C@H]1OC(=O)CCc1c[nH]c2ccccc12 [Compound 216, (3R,4S,5R)-3,4,5-tris({[3-(1H-indol-3-yl)propanoyl]oxy})cyclohex-1-ene-1-carboxylic acid] | B (25-75% of the tested compound remaining) |  | Assay 1 (SGF) (% Remaining @ 1 hour) [3]: B (25-75% of the tested compound remaining)
17 | CCC(=O)O[C@@H]1[C@@H](OC(=O)CC)[C@H](Oc2ccccc2C(=O)O)OC[C@@H]1OC(=O)CC [Compound 26, 2-(((2S,3R,4S,5S)-3,4,5-tris(propionyloxy)tetrahydro-2H-pyran-2-yl)oxy)benzoic acid] | A (<25% of the tested compound remaining) |  | Assay 1 (SGF) (% Remaining @ 1 hour) [3]: C (>75% of the tested compound remaining)
18 | CCCC(=O)O[C@@H]1[C@H](OC(=O)CCC)C=C(C(=O)O)C[C@H]1OC(=O)CCC [Compound 218, (3R,4S,5R)-3,4,5-tris(butanoyloxy)cyclohex-1-ene-1-carboxylic acid] |  | B (25-75% of the tested compound remaining) | 
